Reference: patent publication US11058772B2, “(Bacterio)chlorophyll photosensitizers for treatment of eye diseases and disorders” (Yeda Research and Development Co. Ltd., priority 2011, dated 2021)
“Also recorded” adds a separate entry of the source.

Assays:
[1] = ESR spin trapping (4-POBN) of reactive oxygen species in aqueous solution; assay type: physicochemical; conditions: NIR (WST11) or UVA (RF) irradiation
Experimental: All ESR measurements were carried out using a Magnettech ESR Miniscope MS 100 Spectrometer (Germany), with a Microwave X-band Bridge. The ESR spectrometer operates at 9.3-9.55 GHz, 20 mW microwave power. ESR measurements were carried out at room temperature in glass capillaries or flat cells. […] To each solution, the spin-trap α-(4-pyridyl N-oxide)-N-tert-butylnitrone (4-POBN, 65 mM) and ethanol (8%) were added. Controls contained illuminated 4-POBN in saline with/without dextran, and non-illuminated Bchl-S, Bchl-D, RF and RF-D solutions with/without 4-POBN.

rabbit cornea [2] = assay: Ex-vivo ESR measurements of rabbit corneas; conditions: cornea strips, 4-POBN 65 mM, ethanol 8%
Experimental: All ESR measurements were carried out using a Magnettech ESR Miniscope MS 100 Spectrometer (Germany), with a Microwave X-band Bridge. The ESR spectrometer operates at 9.3-9.55 GHz, 20 mW microwave power. ESR measurements were carried out at room temperature in glass capillaries or flat cells. Eyes of rabbits were enucleated post mortem. The corneas were de-epithelialized mechanically and corneal strips, 5 mm in width, were cut with a self-constructed double-blade cutter. The strips were immediately immersed for 30 min in solutions containing 4-POBN (65 mM) and ethanol (8%), and either Bchl-S or RF-D. Next, the strips were washed with saline and put in the flat-cells (0.5×5 mm^3) for NIR/UVA illumination followed by ESR measurements with the aforementioned Miniscope.

rabbit cornea [3] = assay: Stress-strain measurements of in-vivo treated corneas
Experimental: Twelve to twenty five weeks old rabbits (2.5-3 Kg weight) were used. They were anesthetized by intramuscular (i.m.) injection of 35 mg/kg ketamine (Rhone Merieux, Lyon, France) and 5 mg/kg xylazine (Vitamed, Binyamina, Israel). Usually, 16 rabbits were assigned for bacteriochlorophyll treatment. After de-epithelialization, one eye of each rabbit was treated topically with a test compound in saline for 10, 20 and 30 minutes using an eye cap (12 mm in diameter), followed by NIR illumination for 10, 20 or 30 minutes (755 nm, 10 mW/cm^2). The other eye served as untreated control. To prevent exposure of the limbal stem cells, the illuminated area was restricted by an aluminum foil mask with an 8 mm diameter central opening. To determine the role of dextran, 12 rabbits were divided into 4 treatment groups of 3 rabbits each: group 1, the Bchl-S group, was treated with a saline solution of a bacteriochlorophyll derivative; group 2, the Bchl-D group, treated with a bacteriochlorophyll-dextran solution. Both groups were incubated with the test compound for 20-min, followed by NIR illumination (755 nm, 10 mW/cm^2) for 30 minutes. Group 3, the RF group, was treated with riboflavin without dextran, and group 4, the RF-D group was treated with RF-dextran solution (RF-D). Both groups were incubated with RF or RF-D solutions for 30-minute, followed by UVA illumination (370 nm, 3 mW/cm^2) for 30 minutes. An ophthalmic ointment containing dexamethasone 0.1%, neomycin and polymixin B (Maxitrol®, Alcon, Belgium) was applied on the treated eyes once daily for two weeks. Four weeks after the treatment the rabbits were sacrificed, and the corneoscleral rings were removed and placed on paraffin hemisphere buttons of matching shape to assure accurate sectioning without stretching the tissue. Corneal strips, 4±0.2 mm in width, were cut from the epithelial side, as described above in the ex-vivo section. The corneal strips were transferred to the biomechanical tester without delay.
(§1) The corneal and scleral strips were clamped horizontally, at a distance of 6 mm, between the jaws of a microcomputer-controlled biomaterial tester (Minimat, Germany) with a 200 Newton force cell (FIG. 1). Controlled tightening of screws was performed with a calibrated screwdriver at a preset torque of 9 cN.m (Torqueleader, England). The strain was increased linearly at a rate of 1.0 mm/min and was measured up to tissue rupture. Young's modulus was calculated by the testing machine. Ultimate stress and Young's modulus were expressed in Mega Pascal (MPa) units.
Corneas of 16 live rabbits were pretreated for 10 (n=4), 20 (n=6) and 30 (n=6) minutes with WST11-S (2.5 mg/ml). NIR illumination (755 nm, 10 mW/cm^2) was then delivered for 30 minutes. […] Results are shown in FIGS. 9A-9B, and in Tables 1 and 2.
To determine the role of dextran, the photochemical treatment with a formulation of WST11 2.5 mg/ml containing 20% dextran T-500 (WST11-D) was examined. Six rabbits were examined: 3 rabbits were pretreated for 20 min with WST11-S solution and 3 with WST11-D solution, followed by NIR illumination for 30 minutes. Additional 4 rabbits were treated with RF (n=2) or RF-D (n=2) for 30 minutes, followed by 30-min UVA irradiation (370 nm, 3 mW/cm^2).

rabbit sclera [4] = assay: Depth of penetration into the rabbit sclera (fluorescence microscopy); assay type: in vitro ADME; conditions: ex vivo using eye cap and in-situ using Merocel sponge
Experimental: Test compound solution was applied in the supero-temporal or infero-nasal (alternating) quadrant of the rabbit by a curved plastic or metal glide with attached Merocel® sponge connected by a tube that ran along the glide outside. The glide was inserted through a conjunctival opening at the limbus (see FIGS. 17A-17B). After placing the glide attached to the sclera, the tube was connected to a syringe or pump, and the test compound reservoir was injected to impregnate the sclera. Application of the photosensitizer was continued for 10 or 30 minutes. Afterwards, the glide with the Merocel® was withdrawn.
The treated scleral area and the opposing control sclera were trephined with a round skin trephine of 8-mm diameter and scissors and immediately frozen. Sagittal slices of 20 microns were dissected with a cryomicrotome at the central area of the scleral button. The fluorescence intensity at 755 nm was recorded upon excitation at 740 nm using a fluorescence microscope (Olympus, Japan).

rabbit sclera [5] = assay: Biomechanical testing of rabbit sclera treated ex vivo, NIR illumination through the anterior eye segment; conditions: 20 min incubation
Experimental: as §1
Six eyes of three rabbits were enucleated. The posterior eye area up to the equatorial line was incubated using an eye cap with 2.5 mg/ml solution of WST11 in saline pH 7.3 for 20 minutes and then illuminated by NIR illumination through the anterior cornea using a diode laser (755 nm, 0.5 W) and three mirror fundus lens (FIGS. 18A-18C) for 30 minutes. Strips of sclera were cut and tested as described in Materials and Methods.

[6] = 20 min pretreatment, saline or 20% dextran T-500 formulation, 30 min NIR
[7] = 30 days, 30 min incubation, 30 min NIR, vs untreated fellow eyes, dipotassium salt
[8] = 30 days, 30 min incubation, 30 min NIR, vs untreated fellow eyes, listed as WST11-S, dipotassium salt
[9] = one month, 10 min incubation, 30 min NIR
[10] = one month, 20 min incubation, 30 min NIR

With `CCC1C2=Cc3c(C)c(C(=O)NCCS(=O)(=O)[O-])c4[n]3[Pd][n]3c(c(C)c(C(C)=O)c3=CC(=N2)C1C)=CC1=NC(=C4CC(=O)OC)C(CCC(=O)[O-])C1C.[K+].[K+]` (stereo not shown) [WST11, Palladium 3^1-oxo-15-methoxycarbonylmethyl-rhodobacteriochlorin 13^1-(2-sulfoethyl)amide dipotassium salt] the “singlet oxygen trapping (ESR quartet of 4-POBN)” value [1] was “minimal traces of singlet oxygen”, the “superoxide and hydroxyl radicals (ESR sextet of 4-POBN)” value ([1]; dipotassium salt) was “generate superoxide and hydroxyl radicals; also recorded: superoxide and hydroxyl radical formation” and the “ESR signals of ROS trapped in the treated cornea” value (rabbit cornea [2]) was “no traces of singlet oxygen”. For the same compound, the “increase in Young's modulus compared with untreated corneas of fellow eyes” value (rabbit cornea [3]; [6]) was “approximately two-fold increase”, the “increase in mean ultimate stress compared with untreated corneas of fellow eyes” value (rabbit cornea [3]; [6]) was “approximately two-fold increase” and the “Mean Young's Modulus Intensity” value (rabbit cornea [3]; 30 days, 30 min incubation 2.5 mg/ml, 30 min NIR) was 32 ± 3.6 MPa. For the same compound, the “Mean ultimate stress Intensity” value (rabbit cornea [3]; 30 days, 30 min incubation 2.5 mg/ml, 30 min NIR 755 nm 10 mW/cm^2) was 6.91 ± 0.53 MPa, the “Mean Young's Modulus Increase %” value (rabbit cornea [3]; [7]) was 174% and the “Mean ultimate stress Increase %” value (rabbit cornea [3]; [7]) was 111%. The “Mean Young's Modulus Increase %” value (rabbit cornea [3]; [8]) was 173%, the “Mean ultimate stress Increase %” value (rabbit cornea [3]; [8]) was 126% and the “Mean Young's Modulus Intensity” value (rabbit cornea [3]; [9]) was 13.9 ± 3.9 MPa. For the same compound, the “Mean ultimate stress Increase %” value (rabbit cornea [3]; [9]) was 45%, the “Mean ultimate stress Intensity” value (rabbit cornea [3]; [9]) was 4.51 ± 1.85 MPa and the “Mean Young's Modulus Increase %” value (rabbit cornea [3]; one month, 10 min incubation, 30 min NIR, dipotassium salt) was 9%. The “Mean Young's Modulus Increase %” value (rabbit cornea [3]; one month, 10 min incubation, 30 min NIR, listed as WST11-S, dipotassium salt) was 10%, the “Mean Young's Modulus Increase %” value (rabbit cornea [3]; [10]) was 79% and the “Mean Young's Modulus Intensity” value (rabbit cornea [3]; [10]) was 22.7 ± 3.82 MPa. The “Mean ultimate stress Increase %” value (rabbit cornea [3]; [10]) was 113%, the “Mean ultimate stress Intensity” value (rabbit cornea [3]; [10]) was 6.66 ± 0.67 MPa and the penetration into sclera (rabbit sclera [4]) was “penetrated into sclera tissue”. For the same compound, the “increase in Young's modulus” value (rabbit sclera [5]; NIR through anterior cornea) was 54%, the “increase in maximal stress” value (rabbit sclera [5]; NIR through anterior cornea) was 42% and the mean maximal stress (rabbit sclera [5]; NIR through anterior cornea 30 min, control 4.65±1.15) was 6.59±1.32 MPa. For the same compound, the “mean Young's modulus” value (rabbit sclera [5]; NIR through anterior cornea 30 min, control 25.25±5.30) was 38.83±6.89 MPa.
